Reference: US12486269B2 (Aconcagua Bio, Inc., priority 2024, dated 2025)

Experiments:
Assay type in all cases: cell-based
[1] = target: T1, human calcitonin receptor (CTR) (Homo sapiens, UniProt P30988); assay: Calcitonin Receptor (CTR) cAMP Assay; conditions: COS7-human CTR Clone #2 stable cell line, cAMP dynamic 2 kit, 30 min; read-out: Calcitonin Receptor cAMP Stimulation Activity: EC50
T1 construct: expressed in transfected cells; host or cells: COS-7 (COS7-human CTR Clone #2)
T1 sequence (P30988 25-474): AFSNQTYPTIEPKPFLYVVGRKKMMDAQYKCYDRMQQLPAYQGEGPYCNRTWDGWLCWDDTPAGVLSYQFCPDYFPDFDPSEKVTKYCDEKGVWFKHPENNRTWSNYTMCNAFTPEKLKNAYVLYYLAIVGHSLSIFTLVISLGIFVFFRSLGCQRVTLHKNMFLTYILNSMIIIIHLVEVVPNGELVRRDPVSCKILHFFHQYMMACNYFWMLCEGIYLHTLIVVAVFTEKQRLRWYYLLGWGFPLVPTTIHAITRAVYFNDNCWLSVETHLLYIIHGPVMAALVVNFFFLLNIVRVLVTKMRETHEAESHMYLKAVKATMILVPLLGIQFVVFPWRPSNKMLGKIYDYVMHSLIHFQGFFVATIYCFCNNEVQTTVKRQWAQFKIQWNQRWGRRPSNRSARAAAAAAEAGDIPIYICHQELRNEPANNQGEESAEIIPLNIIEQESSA
Method in brief: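 cAMP accumulation was measured by HTRF cAMP dynamic 2 read at 665/615 nm, 1 h at room temperature, with results scaled between vehicle and positive control. Before detection, COS7-human CTR stable cells were stimulated 30 min at 37 °C with compound (4-fold dilutions) in IBMX-containing HBSS/HEPES/casein buffer.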

[2] = target: T2, COS-7/AMY3 (human calcitonin receptor (CTR) and RAMP3) (Homo sapiens, UniProt O60896+P30988); assay: Amylin Receptor cAMP Assay II; conditions: values marked **: Amylin Receptor cAMP Assay II; COS-7/AMY3 cells, cAMP dynamic 2 kit, 30 min; read-out: Amylin Receptor cAMP Stimulation Activity: EC50
T2 construct: expressed in transfected cells; host or cells: COS-7
T2 sequence (O60896 24-148, one chain of several): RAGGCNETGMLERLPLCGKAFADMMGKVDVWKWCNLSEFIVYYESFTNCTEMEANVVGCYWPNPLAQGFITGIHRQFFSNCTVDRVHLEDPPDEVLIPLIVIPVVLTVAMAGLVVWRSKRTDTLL
Method in brief: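 Agonist-induced cAMP was quantified by HTRF ratio at 665/615 nm and expressed as % of the window from vehicle to MAX control. Stimulation lasted 30 min at 37 °C in HBSS/20 mM HEPES/0.5 mM IBMX/0.1% casein, using stable human CTR+RAMP3 (AMY3) COS-7 cells at 2000 per well.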

[3] = target: T2, COS-7/AMY3 (human calcitonin receptor (CTR) and RAMP3); assay: Amylin Receptor cAMP Assay I; conditions: values marked *: Amylin Receptor cAMP Assay I; COS-7/AMY3 cells, cAMP Hi-range kit, 30 min; read-out: Amylin Receptor cAMP Stimulation Activity: EC50
Source text: Amylin Receptor cAMP Assay I
AMYRs are heterodimers of the class B calcitonin (CT) G-protein-coupled receptor (CTR) and receptor activity-modifying proteins (RAMPs). All three RAMPs can interact with the CTR and form AMY1, AMY2, AMY3 with RAMP1, RAMP2 and RAMP3, respectively. Like other class B1 GPCRs, the CT receptor family is canonically coupled to Gs-mediated cAMP production, and measurement of cAMP accumulation has been the primary assay used to determine peptide selectivity and potency.
To optimize functional activity directed toward Gαs coupling, COS-7 cells were stably transfected with human calcitonin receptor (CTR) and RAMP3, simultaneously. 100×concentration of compound working solutions were prepared (Agilent Technologies Bravo) with 4-fold serial dilution in 384-well Echo LDV plate (Labcyte, Cat #LP-0200). 100 nL/well 100×concentration of compound working solutions were moved to 384-well white low volume plate (Greiner, Cat #784075) using Labcyte ECHO550. […]
After incubation, the cAMP assay signal was generated using cAMP Hi-range Kit (Cisbio). […] The samples were then incubated at room temperature for 1 hour protected from light. the fluorescence was read at 665 and 615 nm with Reader PerkinElmer EnVision. % Activity=100%×(mean RLU of test sample−mean RLU of vehicle control)/(mean RLU of MAX control−mean RLU of vehicle control)) Amylin Receptor cAMP Assay II

SMILES	EC50 [1]	EC50 [2]	EC50 [3]
O=C1c2c(nc(CCc3ccc(F)cc3)c(-c3noc(=O)[nH]3)c2-c2ccc3c(c2)CCCN3CCc2ccc(F)c(F)c2)[C@@H]2CCCN12 [Compound 114]	396 nM	425 nM	–
COc1cccc2c1CC[C@H]2NC(=O)c1ccc(-c2c3c(nc(CCc4ccc(F)cc4)c2-c2noc(=O)[nH]2)[C@@H]2CCCN2C3=O)s1 [Compound 108, 5-((S)-2-(4-fluorophenethyl)-5-oxo-3-(5-oxo-4,5-dihydro-1,2,4-oxadiazol-3-yl)-7,8,9,9a-tetrahydro-5H-pyrido[2,3-a]pyrrolizin-4-yl)-N—((R)-4-methoxy-2,3-dihydro-1H-inden-1-yl)thiophene-2-carboxamide]	2.42 nM	–	121 nM
COc1cccc2c1CC[C@H]2Nc1nccc2cc(-c3c4c(nc(CCc5ccc(F)cc5)c3-c3cc(=O)[nH]o3)[C@@H]3CCCN3C4=O)sc12 [Compound 150, 5-((S)-2-(4-fluorophenethyl)-4-(7-(((R)-4-methoxy-2,3-dihydro-1H-inden-1-yl)amino)thieno[2,3-c]pyridin-2-yl)-5-oxo-7,8,9,9a-tetrahydro-5H-pyrido[2,3-a]pyrrolizin-3-yl)isoxazol-3(2H)-one]	1.06 nM	25.4 nM	–
CC(c1ccc(F)c(F)c1)n1ccc2cc(-c3c4c(nc(CCC5CCOCC5)c3-c3cc(=O)[nH]o3)[C@@H]3CCCN3C4=O)ccc21 (stereo partly drawn) [Compound 202, 5-((9aS)-4-(1-(1-(3,4-difluorophenyl)ethyl)-1H-indol-5-yl)-5-oxo-2-(2-(tetrahydro-2H-pyran-4-yl)ethyl)-7,8,9,9a-tetrahydro-5H-pyrido[2,3-a]pyrrolizin-3-yl)isoxazol-3(2H)-one]	66.2 nM	1750 nM	–

Second part, the compound after the results:

EC50 [1]	EC50 [2]	EC50 [3]	SMILES
0.0636 nM	0.517 nM	–	COc1c(F)ccc2c1CC[C@H]2Nc1nccc2cc(-c3c4c(nc(CCc5ccccc5Cl)c3-c3n[nH]c(=O)o3)C35CC(CN3C4=O)C5)sc12 [Compound 278, (R)-5-(2-(2-chlorophenethyl)-4-(7-((5-fluoro-4-methoxy-2,3-dihydro-1H-inden-1-yl)amino)thieno[2,3-c]pyridin-2-yl)-5-oxo-8,9-dihydro-5H,7H-8,9a-methanopyrido[2,3-a]pyrrolizin-3-yl)-1,3,4-oxadiazol-2(3H)-one]
0.469 nM	19.1 nM	–	COc1cccc2c1CC[C@H]2Nc1nccc2cc(-c3c4c(nc(CCc5cc(F)cs5)c3-c3n[nH]c(=O)o3)[C@@H]3CCCN3C4=O)sc12 [Compound 245, 5-((S)-2-(2-(4-fluorothiophen-2-yl)ethyl)-4-(7-(((R)-4-methoxy-2,3-dihydro-1H-inden-1-yl)amino)thieno[2,3-c]pyridin-2-yl)-5-oxo-7,8,9,9a-tetrahydro-5H-pyrido[2,3-a]pyrrolizin-3-yl)-1,3,4-oxadiazol-2(3H)-one]
1.08 nM	14.2 nM	–	O=C1c2c(nc(CCc3ccc(F)cc3)c(-c3n[nH]c(=O)o3)c2-c2cc3ccnc(N[C@@H]4CCc5ccccc54)c3s2)[C@@H]2CCCN12 [Compound 226, 5-((S)-4-(7-(((R)-2,3-dihydro-1H-inden-1-yl)amino)thieno[2,3-c]pyridin-2-yl)-2-(4-fluorophenethyl)-5-oxo-7,8,9,9a-tetrahydro-5H-pyrido[2,3-a]pyrrolizin-3-yl)-1,3,4-oxadiazol-2(3H)-one]
0.016 nM	0.362 nM	–	COc1c(F)ccc2c1CC[C@H]2Nc1nc(C)cc2cc(-c3c4c(nc(CCc5cccc(F)c5)c3-c3n[nH]c(=O)o3)C35CC(CN3C4=O)C5)sc12 [Compound 300, (R)-5-(4-(7-((5-fluoro-4-methoxy-2,3-dihydro-1H-inden-1-yl)amino)-5-methylthieno[2,3-c]pyridin-2-yl)-2-(3-fluorophenethyl)-5-oxo-8,9-dihydro-5H,7H-8,9a-methanopyrido[2,3-a]pyrrolizin-3-yl)-1,3,4-oxadiazol-2(3H)-one]
